Test results published in patent EP2351758B1, “METAL COMPLEXES, A METHOD FOR PREPARING SAME, RADIOPHAR[…] BASED THEREON” (Zakrytoe Aktsionernoe Obschestvo "Farm-Sintez", priority 2008, dated 2010).
Like-named read-outs stand apart in the source and are kept apart here.

Experiments:
[1] = 3 hours after administration, cited from earlier work
[2] = Pharmacokinetics (distribution in organs and tissues) in female rats with modeled osseous pathology (femur fracture) after intravenous introduction; format: in vivo; conditions: for Blood / Femur, fractured / Femur, normal / Kidneys / Liver / Skeleton / Stomach / Urinary bladder (1, 3 h) / Excretion (5, 24): female rats with modeled osseous pathology, i.v.; for Delayed retention index: ratio of concentration in femur with modeled pathology to healthy femur
Experimental: (§1) The experiments were run on the intact scrub albino rats with modeled osseous pathology. The osseous pathology was imitated by the femur fracture.
(§2) To prepare the composition, 5.0 ml of the sodium pertechnetate ^99mTc from the technetium generator (FSP 42-0225-4528-03, FSP 42-0018-2694-02) were injected into the lyophilizate vial by puncturing the rubber stopper with a syringe needle; then the vial was agitated and cured 20 minutes. The 0.2 ml volume of the composition was injected into the caudal vein. 1, 3, 5, and 24 hours after injection the animals were devitalized by decapitation; then the samples of blood, liver, kidneys, stomach, right and left femurs, urinary bladder with contents were taken. The radionuclide in organs and tissues was determined by the direct radiometry.
The delayed retention index was determined as the ratio of division of the composition concentration in the femoral bone with the modeled osseous pathology and in the healthy femoral bone.
(§3) The statistical treatment used the Student's method.

[3] = Pharmacokinetics (distribution in organs and tissues) in intact female rats after intravenous introduction; format: in vivo; conditions: for Blood / Femur / Kidneys / Liver / Skeleton / Stomach / Urinary bladder (1, 3 h) / Excretion (5, 24): intact female rats, i.v.
Experimental: as §1, §2, §3

[4] = intact animals, 3 hours after introduction

In the case of “99Tcm labeled zoledronate (ZL) [known solution (Wang et al)]”, the “skeletal retention of RM” value ([1]; known solution (Wang et al)) is given as 34.2% and the “retention level in the liver” value ([1]; prior metal complex (Wang et al)) is given as 13.4 % of the doze injected.

For “Technetium-99m in form of complex with zoledronic acid [zoledronic acid, 99mTc]”, the Blood ([2]; 1 h) was 1.7 ± 0.71 % dose/organ, the “Femur, fractured” value ([2]; 1 h) was 4.2 ± 1.04 % dose/organ and the “Femur, normal” value ([2]; 1 h) was 2.1 ± 0.20 % dose/organ. For the same substance, the Kidneys ([2]; 1 h) was 1.8 ± 0.83 % dose/organ, the Liver ([2]; 1 h) was 1.7 ± 0.58 % dose/organ and the Skeleton ([2]; 1 h) was 57.7 ± 5.54 % dose/organ. For the same substance, the Stomach ([2]; 1 h) was 0.4 ± 0.03 % dose/organ, the “Urinary bladder (1, 3 h)” value ([2]; 1 h) was 35.1 ± 10.53 % dose/organ and the Blood ([2]; 3 h) was 2.0 ± 0.81 % dose/organ. For the same substance, the “Femur, fractured” value ([2]; 3 h) was 4.0 ± 1.34 % dose/organ, the “Femur, normal” value ([2]; 3 h) was 1.9 ± 0.42 % dose/organ and the Kidneys ([2]; 3 h) was 1.4 ± 0.68 % dose/organ. For the same substance, the Liver ([2]; 3 h) was 1.1 ± 0.42 % dose/organ, the Skeleton ([2]; 3 h) was 46.6 ± 7.81 % dose/organ and the Stomach ([2]; 3 h) was 0.2 ± 0.09 % dose/organ. For the same substance, the “Urinary bladder (1, 3 h)” value ([2]; 3 h) was 44.8 ± 3.89 % dose/organ, the Blood ([2]; 5 h) was 0.5 ± 0.01 % dose/organ and the “Excretion (5, 24)” value ([2]; 5 h) was 43.4 ± 5.05 % dose/organ. For the same substance, the “Femur, fractured” value ([2]; 5 h) was 3.1 ± 0.70 % dose/organ, the “Femur, normal” value ([2]; 5 h) was 1.9 ± 0.20 % dose/organ and the Kidneys ([2]; 5 h) was 0.9 ± 0.06 % dose/organ. It also gave a Liver ([2]; 5 h) of 1.0 ± 0.05 % dose/organ, a Skeleton ([2]; 5 h) of 49.9 ± 5.44 % dose/organ and a Stomach ([2]; 5 h) of 0.4 ± 0.05 % dose/organ. For the same substance, the Blood ([2]; 24 h) was 0.7 ± 0.01 % dose/organ, the “Excretion (5, 24)” value ([2]; 24 h) was 52.5 ± 10.86 % dose/organ and the “Femur, fractured” value ([2]; 24 h) was 2.5 ± 0.05 % dose/organ. The “Femur, normal” value ([2]; 24 h) was 1.4 ± 0.40 % dose/organ, the Kidneys ([2]; 24 h) was 0.5 ± 0.08 % dose/organ and the Liver ([2]; 24 h) was 0.5 ± 0.09 % dose/organ. The Skeleton ([2]; 24 h) was 38.0 ± 11.02 % dose/organ, the Stomach ([2]; 24 h) was “traces” and the Delayed retention index ([2]; 1 h) was 2.0. It also gave a Delayed retention index ([2]; 3 h) of 2.1, a Delayed retention index ([2]; 5 h) of 1.7 and a Delayed retention index ([2]; 24 h) of 1.9. The “retention level in the liver” value ([3]; 3 hours after administration) was 1.0 % of the doze injected, the “skeletal retention of RM” value ([3]; 3 hours after the administration) was 47.3 % of the dose injected and the “activity level in blood” value ([3]; 5 hours after the study start) was “trace”. The excretion [3, 4] was 30%, the “retention in the skeleton” value [3, 4] was 47% and the “injected activity localizes in the skeleton” value ([3]; intact animals, intravenous injection, in one hour) was “up to 48 % of the injected activity”. For the same substance, the “excreted from the organism with the urine” value ([3]; intact animals, intravenous injection, in one hour, 60 min) was 45%, the Blood ([3]; 1 h) was 1.7 ± 0.27 % dose/organ and the Femur ([3]; 1 h) was 1.8 ± 0.16 % dose/organ. The Kidneys ([3]; 1 h) was 1.3 ± 0.17 % dose/organ, the Liver ([3]; 1 h) was 0.8 ± 0.12 % dose/organ and the Skeleton ([3]; 1 h) was 48.1 ± 4.36 % dose/organ. The Stomach ([3]; 1 h) was 0.1 ± 0.03 % dose/organ, the “Urinary bladder (1, 3 h)” value ([3]; 1 h) was 45.4 ± 4.03 % dose/organ and the Blood ([3]; 3 h) was 0.9 ± 0.38 % dose/organ. For the same substance, the Femur ([3]; 3 h) was 1.9 ± 0.35 % dose/organ, the Kidneys ([3]; 3 h) was 0.9 ± 0.21 % dose/organ and the Liver ([3]; 3 h) was 1.0 ± 0.27 % dose/organ. For the same substance, the Skeleton ([3]; 3 h) was 47.3 ± 2.89 % dose/organ, the Stomach ([3]; 3 h) was 0.1 ± 0.01 % dose/organ and the “Urinary bladder (1, 3 h)” value ([3]; 3 h) was 30.1 ± 4.41 % dose/organ. The Blood ([3]; 5 h) was 0.4 ± 0.03 % dose/organ, the “Excretion (5, 24)” value ([3]; 5 h) was 52.4 ± 2.80 % dose/organ and the Femur ([3]; 5 h) was 1.6 ± 0.11 % dose/organ. The Kidneys ([3]; 5 h) was 1.2 ± 0.13 % dose/organ, the Liver ([3]; 5 h) was 0.6 ± 0.11 % dose/organ and the Skeleton ([3]; 5 h) was 42.9 ± 2.93 % dose/organ. The Stomach ([3]; 5 h) was 0.1 ± 0.04 % dose/organ, the Blood ([3]; 24 h) was “traces” and the “Excretion (5, 24)” value ([3]; 24 h) was 39.1 ± 5.00 % dose/organ. The Femur ([3]; 24 h) was 1.8 ± 0.06 % dose/organ, the Kidneys ([3]; 24 h) was 0.6 ± 0.32 % dose/organ and the Liver ([3]; 24 h) was 0.2 ± 0.13 % dose/organ. It also gave a Skeleton ([3]; 24 h) of 49.6 ± 1.77 % dose/organ and a Stomach ([3]; 24 h) of 0.3 ± 0.05 % dose/organ.
